Experimental data: PMC10220878 (Pharmaceutics, 2023)
Where “and” joins values, the source holds several entries; their conditions need not be identical. Equal entries are not always repeated. Entries after “also recorded” stand apart in the source; their conditions may differ.

How the values were obtained:
bEnd.3 cells = experiment: MTS cell viability assay in bEnd.3 cells
Oct-2 = conditions: cited from earlier work; for IC50: read-out: IC50 for 10 µM Metformin Uptake, Oct-2, 10 µM metformin
Oct-3 = conditions: cited from earlier work; for IC50: read-out: IC50 for 10 µM Metformin Uptake, Oct-3, 10 µM metformin
Oct-1 = conditions: cited from earlier work; for IC50: read-out: IC50 for 10 µM Metformin Uptake, Oct-1, 10 µM metformin
mouse primary astrocytes = experiment: MTS cell viability assay in mouse primary astrocytes; assay type: cell-based; conditions: 3 h, concentrations used in permeability studies (MF 1, 10, 20 mM; mitoxantrone 25 µM; corticosterone 150 µM)
[1] = human subjects; cited from earlier work
P-GP = biological target: T1, P-GP (Homo sapiens, UniProt P08183); experiment: P-glycoprotein efflux transporter substrate assay (MDR1-MDCK transwell); assay type: in vitro ADME
T1 construct: host or cells: MDR1-MDCK (MDCK cells overexpressing MDR1)
Procedure: (§1) For P-GP efflux assay, MDR1-MDCK 12-well transport assay (MB Biosciences LLC, Natick, MA, USA) was used. The cells were maintained in high glucose DMEM media supplied with 10% FBS, non-essential amino acid, penicillin/streptomycin, L-glutamine, and colchicine as recommended by the supplier. After the shipping medium was changed to a fresh MDR1-MDCK cell culture medium, the plate was kept in the incubator for 24 h before performing the experiment. […] The inhibitor was present on both sides of the compartments during pre-incubation of 30 min and during the transport experiment. After 120 min of incubation at 37 °C, samples were collected from the basolateral chamber and quantified by LC-MS/MS method. […] The permeability coefficient (PC, cm/s) was calculated using the published literature method. The PC value from apical (A) to basolateral (B) compartment in the presence and absence of CsA was used to calculate the unidirectional flux ratio (UFR), which is defined by the following equation:(3) UFR=PC, A−to−B+CsA/PC,A−to−B−CsA

P-gp (MDR1) = biological target: T2, P-gp (MDR1) (Homo sapiens, UniProt P08183); experiment: as above; assay type: in vitro ADME; conditions: dog, MDR1-MDCK, 10 µM MF, 120 min
T2 construct: host or cells: MDR1-MDCK (MDCK cells overexpressing MDR1)
Procedure: as §1

hOCT2 = conditions: read-out: apparent IC50 of MF for uptake of tracer [14C] MF; cited from earlier work
[2] = test system: in vitro co-culture model of BBB (bEnd.3 cells and mouse primary astrocytes); experiment: NaF permeability across BBB co-culture (barrier integrity); assay type: in vitro ADME; conditions: Figure S1
[3] = 3 h, concentrations used in permeability studies (MF 1, 10, 20 mM; mitoxantrone 25 µM; corticosterone 150 µM)
[4] = single transporter-expressing cell line, read-out: apparent Km of saturable MF uptake

T2 sequence (P08183 whole entry): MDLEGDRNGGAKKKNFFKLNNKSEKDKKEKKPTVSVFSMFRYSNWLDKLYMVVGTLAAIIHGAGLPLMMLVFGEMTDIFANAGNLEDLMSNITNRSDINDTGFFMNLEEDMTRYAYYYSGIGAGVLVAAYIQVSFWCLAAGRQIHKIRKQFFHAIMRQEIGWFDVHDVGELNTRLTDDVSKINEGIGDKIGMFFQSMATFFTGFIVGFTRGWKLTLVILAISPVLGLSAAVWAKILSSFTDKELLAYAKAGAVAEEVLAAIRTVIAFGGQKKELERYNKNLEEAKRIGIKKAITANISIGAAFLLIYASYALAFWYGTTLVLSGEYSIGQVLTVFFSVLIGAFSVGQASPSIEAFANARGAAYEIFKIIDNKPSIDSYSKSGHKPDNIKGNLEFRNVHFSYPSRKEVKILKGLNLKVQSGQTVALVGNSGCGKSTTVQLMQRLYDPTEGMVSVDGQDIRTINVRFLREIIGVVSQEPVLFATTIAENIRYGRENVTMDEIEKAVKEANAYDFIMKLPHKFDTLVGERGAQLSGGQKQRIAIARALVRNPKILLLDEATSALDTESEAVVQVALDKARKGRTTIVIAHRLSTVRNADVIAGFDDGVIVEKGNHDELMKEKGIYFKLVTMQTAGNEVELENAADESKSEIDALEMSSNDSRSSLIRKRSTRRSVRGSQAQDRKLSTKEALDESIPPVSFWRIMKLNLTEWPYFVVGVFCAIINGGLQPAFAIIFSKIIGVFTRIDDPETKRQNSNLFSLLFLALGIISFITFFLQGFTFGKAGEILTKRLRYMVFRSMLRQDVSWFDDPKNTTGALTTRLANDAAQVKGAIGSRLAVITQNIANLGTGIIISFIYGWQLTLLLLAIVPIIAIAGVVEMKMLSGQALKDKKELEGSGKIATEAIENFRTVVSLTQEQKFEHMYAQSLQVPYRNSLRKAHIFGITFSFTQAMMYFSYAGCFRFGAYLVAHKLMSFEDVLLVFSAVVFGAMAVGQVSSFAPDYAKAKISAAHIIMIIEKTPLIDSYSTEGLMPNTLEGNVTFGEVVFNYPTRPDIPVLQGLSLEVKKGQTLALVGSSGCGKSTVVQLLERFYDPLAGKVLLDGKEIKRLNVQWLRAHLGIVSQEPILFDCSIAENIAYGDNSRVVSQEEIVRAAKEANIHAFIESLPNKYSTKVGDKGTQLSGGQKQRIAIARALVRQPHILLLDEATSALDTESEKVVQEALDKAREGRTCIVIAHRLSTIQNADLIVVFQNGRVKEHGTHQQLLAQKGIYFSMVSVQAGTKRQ
T1 sequence (P08183 whole entry): as above

Structure (SMILES): C[C@]12C[C@H](O)[C@H]3[C@@H](CCC4=CC(=O)CC[C@@]43C)[C@@H]1CC[C@@H]2C(=O)CO [Corticosterone]
- toxicity to cells (MTS cell viability) (bEnd.3 cells; [3]): not toxic
- IC50 (Oct-2): 1.3 µM
- IC50 (Oct-3): 0.2 µM
- IC50 (Oct-1): 3.2 µM
- toxicity to cells (MTS cell viability) (mouse primary astrocytes): not toxic

Structure (SMILES): CN(C)C(=N)N=C(N)N [MF, metformin]
- toxicity to cells (MTS cell viability) (bEnd.3 cells; [3]): not toxic
- Km (Oct-2; [4]): 600 µM
- Km (Oct-3; [4]): 2600 µM
- Km (Oct-1; [4]): 3100 µM
- steady-state concentration [1]: 1.8 µg/mL and 13 µM
- Metformin PC, A > B, +CsA (P-GP; MDR1-MDCK, 10 µM MF, 120 min, with CsA 10 µM): 3.28 ± 0.06 1 × 10^−7 cm/s
- interaction with the efflux transporter P-GP (P-GP; P-GP overexpressing cell line): does not interact
- Papp B→A at 120 min, 10 µM (P-gp (MDR1)): 0.163 ± 0.006 ×10⁻⁶ cm/s
- Papp A→B at 120 min, 10 µM (P-gp (MDR1); without CsA): 0.258 ± 0.018 ×10⁻⁶ cm/s
- IC50 (hOCT2): ~2000 µM
- toxicity to cells (MTS cell viability) (mouse primary astrocytes): not toxic

Structure (SMILES): C[n+]1ccc(-c2ccccc2)cc1 [MPP+]
- toxicity to cells (MTS cell viability) (bEnd.3 cells; 5 mM, 4 h incubation): toxic; also recorded: significantly affected

Structure (SMILES): O=C1c2c(O)ccc(O)c2C(=O)c2c(NCCNCCO)ccc(NCCNCCO)c21 [Mitoxantrone]
- toxicity to cells (MTS cell viability) (bEnd.3 cells; [3]): not toxic
- IC50 (Oct-2): 135 µM
- IC50 (Oct-3): 174 µM
- IC50 for Oct1 lower than for Oct2 and Oct3 (selectivity) (Oct-1; estimated IC50): 40–60 fold
- inhibition of the respective transporter (Oct1) (Oct-1; mitoxantrone at 25 µM, based on Table 1): > 80%
- IC50 (Oct-1): 3 µM
- toxicity to cells (MTS cell viability) (mouse primary astrocytes): not toxic

Structure (SMILES): O=C([O-])c1ccccc1-c1c2ccc(=O)cc-2oc2cc([O-])ccc12.[Na+].[Na+] [NaF, sodium fluorescein]
- PC of NaF compared with [14C] sucrose [2]: no statistically significant difference

Structure (SMILES): CNCCCN1c2ccccc2CCc2ccccc21 [desipramine]
- toxicity to cells (MTS cell viability) (bEnd.3 cells; 200 µM, 4 h incubation): toxic; also recorded: significantly affected
- toxicity to cells (MTS cell viability) (bEnd.3 cells; 100 µm, 4 h incubation): significantly affected
